Here are results for one compound from ChEMBL document CHEMBL4680214, “Fluorinated derivatives of 2-phenyl-3-hydroxy-4(1H)-quinolinone as tubulin polymerization inhibitors” (Eur J Med Chem, 2020).

The test system of experiment [1] is CCRF-CEM. Nature of the experiment: Cytotoxicity against human CCRF-CEM cells incubated for 72 hrs by MTS assay. In kind it is functional, cell-based. On the technique in general: Tetrazolium dyes change colour on reduction, which living cells bring about.
The test system of experiment [2] is CCRF-CEM. Kind of experiment: Cell cycle arrest in human CCRF-CEM cells assessed as accumulation at sub-G1 phase at IC50 measured after 24 hrs by propidium iodide staining based flow cytometry (reference value: 2%). It counts as functional.
Experiment [3] concerns CCRF-CEM. Kind of experiment: Cell cycle arrest in human CCRF-CEM cells assessed as accumulation at G2/M phase at 5 times IC50 measured after 24 hrs by propidium iodide staining based flow cytometry (reference value: 22.6%). In kind it is functional.
The subject of experiment [4] is CCRF-CEM. Kind of experiment: Cell cycle arrest in human CCRF-CEM cells assessed as phosphorylation of histone H3 at Ser10 at 5 times IC50 measured after 24 hrs by propidium iodide staining based flow cytometry (reference value: 2.0%). It counts as functional.
For experiment [5], the system named is CCRF-CEM. Kind of experiment: Cell cycle arrest in human CCRF-CEM cells assessed as increase in phosphorylation of histone H3 at Ser10 at 2 times IC50 measured after 6 to 12 hrs by Western blot analysis. The note with it: time 6-12 hrs. It counts as functional, cell-based.
The test system of experiment [6] is CCRF-CEM. Nature of the experiment: Cell cycle arrest in human CCRF-CEM cells assessed as accumulation at sub-G1 phase at 5 times IC50 measured after 24 hrs by propidium iodide staining based flow cytometry (reference value: 2%). In kind it is functional. For orientation: Flow cytometry measures light scatter and fluorescence of single cells or particles in a stream.

In experiment [7] the test system is HCT-116. Nature of the experiment: Cell cycle arrest in human HCT-116 cells assessed as accumulation at S phase at IC50 measured after 24 hrs by propidium iodide staining based flow cytometry (reference value: 37.7%). In kind it is functional.
In experiment [8] the test system is CCRF-CEM. Kind of experiment: Cell cycle arrest in human CCRF-CEM cells assessed as BrdU incorporation at IC50 measured after 24 hrs by propidium iodide/immunostaining based flow cytometry (reference value: 60.0%). In kind it is functional. (Uptake of a labelled nucleoside into DNA is a usual measure of proliferation.)
Experiment [9] relates to CCRF-CEM. Kind of experiment: Cell cycle arrest in human CCRF-CEM cells assessed as accumulation at S phase at 5 times IC50 measured after 24 hrs by propidium iodide staining based flow cytometry (reference value: 42.2%). In kind it is functional.
In experiment [10] the test system is HCT-116. Nature of the experiment: Cytotoxicity against human HCT-116 cells incubated for 72 hrs by MTS assay. It counts as functional, cell-based. As to conditions: HCT-116, 72 h.
Experiment [11] concerns HCT-116. Nature of the experiment: Cell cycle arrest in human HCT-116 cells assessed as phosphorylation of histone H3 at Ser10 at IC50 measured after 24 hrs by propidium iodide staining based flow cytometry (reference value: 3.4%). It counts as functional.
Experiment [12] concerns CCRF-CEM. Kind of experiment: Cell cycle arrest in human CCRF-CEM cells assessed as polyploid cell population at 2 times IC50 measured after 36 hrs by propidium iodide staining based flow cytometry (reference value: 11.3%). In kind it is functional.

The source made the active and inactive calls. No cut-off for these calls is given here.

As a reminder, the IC50 is the concentration at which inhibition is half-maximal. A high value points to a need for much substance.

Turning to `O=c1c(O)c(-c2ccccc2)[nH]c2cc(F)c(Sc3ccccc3)cc12`, the IC50 in the experiment on CCRF-CEM [1] was 3300 nM; in the experiment with HCT-116 [10], 1300 nM. In addition, the Activity in the experiment with CCRF-CEM [2] is recorded as 5.8%; in the experiment on CCRF-CEM [3], 20.2%; with CCRF-CEM [4] it was 4.9%; in the experiment with CCRF-CEM [6], 29.7%; in the experiment on HCT-116 [7], 33.5%; in the experiment with CCRF-CEM [8], 74.2%. Also, the figures for the Activity in the experiment with CCRF-CEM [9], with HCT-116 [11] and in the experiment with CCRF-CEM [12] were 21.6%, 6.2% and 20.8%, respectively. For the same compound, in the experiment with CCRF-CEM [5], the result was Active.
